Results on 18 molecules are retold here after US11173151B2, “Substituted triazole derivatives and uses thereof” (BAYER AKTIENGESELLSCHAFT, priority 2017, dated 2021).

In one test the target is T1, human V1a receptor (Homo sapiens, UniProt P37288).
T1 construct: expressed in transfected cells; host or cells: CHO K1 (ATCC), also stably transfected with a modified aequorin
The experiment in a line: Cellular in vitro assay for determining vasopressin receptor activity, V1a receptor cell line (CHO, aequorin luminescence). Format: cell-based. The conditions noted are these: for IC50: CHO cell line transfected with human V1a receptor, [Arg]-vasopressin at EC50 concentration, read-out: IC50 hV1a; for ratio IC50 hV2/hV1a: selectivity ratio IC50 hV2 / IC50 hV1a. In short, it runs like this: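 CHO K1/aequorin cells, coelenterazine 5 μg/ml o/n; cpd 10 min; [Arg]-vasopressin at EC50; luminescence read immediately; IC50.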

In another test the target is T2, human V2 receptor (Homo sapiens, UniProt P30518).
T2 construct: expressed in transfected cells; host or cells: CHO K1 (ATCC) expressing firefly luciferase under a CRE-responsive promoter
The experiment in a line: Cellular in vitro assay for determining vasopressin receptor activity, V2 receptor cell line (CHO, CRE-luciferase). The format is cell-based. The conditions noted are these: CHO cell line transfected with human V2 receptor; [Arg8]-vasopressin at EC50 concentration, 3 hours; read-out: IC50 hV2.

The structures appear in SMILES notation.

T2 sequence (P30518 whole entry): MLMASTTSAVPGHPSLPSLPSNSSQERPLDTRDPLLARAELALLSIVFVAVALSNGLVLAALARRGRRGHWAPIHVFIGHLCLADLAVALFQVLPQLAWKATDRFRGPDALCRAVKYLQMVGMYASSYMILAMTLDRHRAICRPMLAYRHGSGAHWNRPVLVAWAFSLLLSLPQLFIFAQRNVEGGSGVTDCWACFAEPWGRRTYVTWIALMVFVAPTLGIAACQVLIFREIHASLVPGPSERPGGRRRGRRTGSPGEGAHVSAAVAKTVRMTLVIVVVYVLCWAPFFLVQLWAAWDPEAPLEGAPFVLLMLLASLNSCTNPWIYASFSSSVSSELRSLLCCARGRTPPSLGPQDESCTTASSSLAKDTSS
T1 sequence (P37288 whole entry): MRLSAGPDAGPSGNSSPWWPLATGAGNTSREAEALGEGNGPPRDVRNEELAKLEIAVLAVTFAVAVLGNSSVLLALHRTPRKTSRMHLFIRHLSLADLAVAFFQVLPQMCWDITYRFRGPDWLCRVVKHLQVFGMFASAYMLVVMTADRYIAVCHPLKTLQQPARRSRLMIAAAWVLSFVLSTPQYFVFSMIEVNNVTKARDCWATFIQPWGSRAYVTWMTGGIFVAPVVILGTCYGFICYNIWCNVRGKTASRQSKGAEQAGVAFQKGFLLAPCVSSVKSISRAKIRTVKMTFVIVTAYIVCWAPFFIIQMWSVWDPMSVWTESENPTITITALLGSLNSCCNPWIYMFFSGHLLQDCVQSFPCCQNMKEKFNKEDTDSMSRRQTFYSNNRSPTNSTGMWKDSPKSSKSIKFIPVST

In the case of `CCN(OC)C(=O)c1ccccc1-n1cnc(Cn2nc(-c3ccc(Cl)cc3)n(C[C@H](O)C(F)(F)F)c2=O)n1` [Example 261, 2-[3-({3-(4-Chlorophenyl)-5-oxo-4-[(2S)-3,3,3-trifluoro-2-hydroxypropyl]-4,5-dihydro-1H-1,2,4-triazol-1-yl}methyl)-1H-1,2,4-triazol-1-yl]-N-ethyl-N-methoxybenzamide], the IC50 on human V1a receptor came out at 1.45 nM; at human V2 receptor, 450 nM. Besides, the “ratio IC50 hV2/hV1a” value at human V1a receptor is listed as 310.3.
Consider `O=C(c1ccccc1-n1cnc(Cn2nc(-c3ccc(Cl)cc3)n(C[C@H](O)C(F)(F)F)c2=O)n1)N1C[C@@H]2C[C@H]1CO2` [Example 262, 5-(4-Chlorophenyl)-2-[(1-{2-[(1S,4S)-2-oxa-5-azabicyclo[2.2.1]hept-5-ylcarbonyl]phenyl}-1H-1,2,4-triazol-3-yl)methyl]-4-[(2S)-3,3,3-trifluoro-2-hydroxypropyl]-2,4-dihydro-3H-1,2,4-triazol-3-one], for which, on human V1a receptor, the half-maximal inhibitory concentration (IC50) turned out to be 3.4 nM and the “ratio IC50 hV2/hV1a” value came out at 258.8. For the same molecule, the IC50 at human V2 receptor was found to be 880 nM.
Take `O=CN1CCN(C(=O)c2ccccc2-n2cnc(Cn3nc(-c4ccc(Cl)cc4)n(C[C@H](O)C(F)(F)F)c3=O)n2)CC1` [Example 263, 4-{2-[3-({3-(4-Chlorophenyl)-5-oxo-4-[(2S)-3,3,3-trifluoro-2-hydroxypropyl]-4,5-dihydro-1H-1,2,4-triazol-1-yl}methyl)-1H-1,2,4-triazol-1-yl]benzoyl}piperazine-1-carbaldehyde]: the IC50 at human V1a receptor worked out at 32.5 nM; on human V2 receptor, 8350 nM. The “ratio IC50 hV2/hV1a” value on human V1a receptor worked out at 256.9.
On to `CN(C)C(=O)c1ccccc1-n1cnc(Cn2nc(-c3ccc(Cl)cc3)n(C[C@H](O)C(F)(F)F)c2=O)n1` [Example 264, 2-[3-({3-(4-Chlorophenyl)-5-oxo-4-[(2S)-3,3,3-trifluoro-2-hydroxypropyl]-4,5-dihydro-1H-1,2,4-triazol-1-yl}methyl)-1H-1,2,4-triazol-1-yl]-N,N-dimethylbenzamide], for which, at human V1a receptor, the half-inhibitory concentration (IC50) stood at 2.45 nM and the “ratio IC50 hV2/hV1a” value turned out to be 512.2. For the same molecule, at human V2 receptor, the IC50 came to 1260 nM.
For `O=C1CCN(C(=O)c2ccccc2-n2cnc(Cn3nc(-c4ccc(Cl)cc4)n(C[C@H](O)C(F)(F)F)c3=O)n2)CCN1` [Example 265, 1-{2-[3-({3-(4-Chlorophenyl)-5-oxo-4-[(2S)-3,3,3-trifluoro-2-hydroxypropyl]-4,5-dihydro-1H-1,2,4-triazol-1-yl}methyl)-1H-1,2,4-triazol-1-yl]benzoyl}-1,4-diazepan-5-one], the values for the IC50 at human V1a receptor and on human V2 receptor were 34.5 nM and 8800 nM, respectively. In addition, at human V1a receptor, the “ratio IC50 hV2/hV1a” value is 255.1.
The like results for `CC1CCN(C(=O)c2ccccc2-n2cnc(Cn3nc(-c4ccc(Cl)cc4)n(C[C@H](O)C(F)(F)F)c3=O)n2)C(C)C1` (stereo partly drawn) [Example 266, 5-(4-Chlorophenyl)-2-[(1-{2-[(2,4-dimethylpiperidin-1-yl)carbonyl]phenyl}-1H-1,2,4-triazol-3-yl)methyl]-4-[(2S)-3,3,3-trifluoro-2-hydroxypropyl]-2,4-dihydro-3H-1,2,4-triazol-3-one] were, in that order, 3.85 nM, 860 nM and 223.4.
For `CC1CN(C(=O)c2ccccc2-n2cnc(Cn3nc(-c4ccc(Cl)cc4)n(C[C@H](O)C(F)(F)F)c3=O)n2)CCN1C` (stereo partly drawn) [Example 267], on human V1a receptor, the half-inhibitory concentration (IC50) worked out at 33.5 nM and the “ratio IC50 hV2/hV1a” value worked out at 119.4. Also, on human V2 receptor, the IC50 was 4000 nM.
Taken in the same sequence, the figures for `O=C(c1ccccc1-n1cnc(Cn2nc(-c3ccc(Cl)cc3)n(C[C@H](O)C(F)(F)F)c2=O)n1)N1CCC(F)(F)C1` [Example 268, 5-(4-Chlorophenyl)-2-[(1-{2-[(3,3-difluoropyrrolidin-1-yl)carbonyl]phenyl}-1H-1,2,4-triazol-3-yl)methyl]-4-[(2S)-3,3,3-trifluoro-2-hydroxypropyl]-2,4-dihydro-3H-1,2,4-triazol-3-one] were 3.65 nM, 265.8 and 970 nM.
For the molecule `COC1CCN(C(=O)c2ccccc2-n2cnc(Cn3nc(-c4ccc(Cl)cc4)n(C[C@H](O)C(F)(F)F)c3=O)n2)CC1` [Example 271, 5-(4-Chlorophenyl)-2-[(1-{2-[(4-methoxypiperidin-1-yl)carbonyl]phenyl}-1H-1,2,4-triazol-3-yl)methyl]-4-[(2S)-3,3,3-trifluoro-2-hydroxypropyl]-2,4-dihydro-3H-1,2,4-triazol-3-one], on human V1a receptor, the IC50 was 14.5 nM and the “ratio IC50 hV2/hV1a” value was 241.4. Besides, at human V2 receptor, the IC50 came to 3500 nM.
Taken in the same sequence, the figures for `CN(CC(F)(F)F)C(=O)c1ccccc1-n1cnc(Cn2nc(-c3ccc(Cl)cc3)n(C[C@H](O)C(F)(F)F)c2=O)n1` [Example 272, 2-[3-({3-(4-Chlorophenyl)-5-oxo-4-[(2S)-3,3,3-trifluoro-2-hydroxypropyl]-4,5-dihydro-1H-1,2,4-triazol-1-yl}methyl)-1H-1,2,4-triazol-1-yl]-N-methyl-N-(2,2,2-trifluoroethyl)benzamide] were 5.85 nM, 299.1 and 1750 nM.
The like results for `CN1CC2CC1CN2C(=O)c1ccccc1-n1cnc(Cn2nc(-c3ccc(Cl)cc3)n(C[C@H](O)C(F)(F)F)c2=O)n1` (stereo partly drawn) [Example 273, 5-(4-Chlorophenyl)-2-[(1-{2-[(5-methyl-2,5-diazabicyclo[2.2.1]hept-2-yl)carbonyl]phenyl}-1H-1,2,4-triazol-3-yl)methyl]-4-[(2S)-3,3,3-trifluoro-2-hydroxypropyl]-2,4-dihydro-3H-1,2,4-triazol-3-one] were, in that order, 13 nM, 476.9 and 6200 nM.
On to `CN(C(=O)c1ccccc1-n1cnc(Cn2nc(-c3ccc(Cl)cc3)n(C[C@H](O)C(F)(F)F)c2=O)n1)C1CCCC1` [Example 276, 2-[3-({3-(4-Chlorophenyl)-5-oxo-4-[(2S)-3,3,3-trifluoro-2-hydroxypropyl]-4,5-dihydro-1H-1,2,4-triazol-1-yl}methyl)-1H-1,2,4-triazol-1-yl]-N-cyclopentyl-N-methylbenzamide], for which, on human V1a receptor, the concentration for half-maximal inhibition (IC50) was 2.7 nM and the “ratio IC50 hV2/hV1a” value came to 425.9. Besides, the IC50 on human V2 receptor is 1150 nM.
The like results for `CC1(C)CCN(C(=O)c2ccccc2-n2cnc(Cn3nc(-c4ccc(Cl)cc4)n(C[C@H](O)C(F)(F)F)c3=O)n2)CC1` [Example 277, 5-(4-Chlorophenyl)-2-[(1-{2-[(4,4-dimethylpiperidin-1-yl)carbonyl]phenyl}-1H-1,2,4-triazol-3-yl)methyl]-4-[(2S)-3,3,3-trifluoro-2-hydroxypropyl]-2,4-dihydro-3H-1,2,4-triazol-3-one] were, in that order, 5.3 nM, 339.6 and 1800 nM.
Regarding `O=C(c1ccccc1-n1cnc(Cn2nc(-c3ccc(Cl)cc3)n(C[C@H](O)C(F)(F)F)c2=O)n1)N1CCCCO1` [Example 278, 5-(4-Chlorophenyl)-2-({1-[2-(1,2-oxazinan-2-ylcarbonyl)phenyl]-1H-1,2,4-triazol-3-yl}methyl)-4-[(2S)-3,3,3-trifluoro-2-hydroxypropyl]-2,4-dihydro-3H-1,2,4-triazol-3-one], the IC50 at human V1a receptor was 1.6 nM; at human V2 receptor, 405 nM. Moreover, the “ratio IC50 hV2/hV1a” value at human V1a receptor worked out at 253.1.
Regarding `O=C1CN(C(=O)c2ccccc2-n2cnc(Cn3nc(-c4ccc(Cl)cc4)n(C[C@H](O)C(F)(F)F)c3=O)n2)CN1` [Example 279, 5-(4-Chlorophenyl)-2-[(1-{2-[(4-oxoimidazolidin-1-yl)carbonyl]phenyl}-1H-1,2,4-triazol-3-yl)methyl]-4-[(2S)-3,3,3-trifluoro-2-hydroxypropyl]-2,4-dihydro-3H-1,2,4-triazol-3-one], on human V1a receptor, the concentration for half-maximal inhibition (IC50) amounted to 27.5 nM and the “ratio IC50 hV2/hV1a” value is 98.2. The IC50 on human V2 receptor worked out at 2700 nM.
Regarding `CC1(C)COCCN1C(=O)c1ccccc1-n1cnc(Cn2nc(-c3ccc(Cl)cc3)n(C[C@H](O)C(F)(F)F)c2=O)n1` [Example 281, 5-(4-Chlorophenyl)-2-[(1-{2-[(3,3-dimethylmorpholin-4-yl)carbonyl]phenyl}-1H-1,2,4-triazol-3-yl)methyl]-4-[(2S)-3,3,3-trifluoro-2-hydroxypropyl]-2,4-dihydro-3H-1,2,4-triazol-3-one], the IC50 was found to be 1.12 nM on human V1a receptor and 2800 nM on human V2 receptor. The “ratio IC50 hV2/hV1a” value on human V1a receptor was found to be 2500.0.
In the case of `O=C(c1ccccc1-n1cnc(Cn2nc(-c3ccc(Cl)cc3)n(C[C@H](O)C(F)(F)F)c2=O)n1)N1CCCOCC1` [Example 284, 5-(4-Chlorophenyl)-2-({1-[2-(1,4-oxazepan-4-ylcarbonyl)phenyl]-1H-1,2,4-triazol-3-yl}methyl)-4-[(2S)-3,3,3-trifluoro-2-hydroxypropyl]-2,4-dihydro-3H-1,2,4-triazol-3-one], on human V1a receptor, the half-maximal inhibitory concentration (IC50) was 2 nM and the “ratio IC50 hV2/hV1a” value stood at 485.0. For the same molecule, the concentration for half-maximal inhibition (IC50) at human V2 receptor stood at 970 nM.
Taken in the same sequence, the figures for `O=C(c1ccccc1-n1cnc(Cn2nc(-c3ccc(Cl)cc3)n(C[C@H](O)C(F)(F)F)c2=O)n1)N1CCCO1` [Example 285, 5-(4-Chlorophenyl)-2-({1-[2-(1,2-oxazolidin-2-ylcarbonyl)phenyl]-1H-1,2,4-triazol-3-yl}methyl)-4-[(2S)-3,3,3-trifluoro-2-hydroxypropyl]-2,4-dihydro-3H-1,2,4-triazol-3-one] were 1.9 nM, 231.6 and 440 nM.
